From PMC9481151, “Discovery of new symmetrical and asymmetrical nitrile-containing 1,4-dihydropyridine derivatives as dual kinases and P-glycoprotein inhibitors: synthesis, in vitro assays, and in silico studies” (Journal of Enzyme Inhibition and Medicinal Chemistry, 2022)

Legend:
CCRF-CEM = test: NCI single dose (10 µM) SRB screen; type: cell-based, human; settings: leukaemia, 48 h
HL-60(TB) = test: NCI single dose (10 µM) SRB screen; type: cell-based, human; settings: leukaemia, 48 h
K-562 = test: NCI single dose (10 µM) SRB screen; type: cell-based, human; settings: leukaemia, 48 h
MOLT-4 = test: NCI single dose (10 µM) SRB screen; type: cell-based, human; settings: leukaemia, 48 h
RPMI-8226 = test: NCI single dose (10 µM) SRB screen; type: cell-based, human; settings: leukaemia, 48 h
SR = test: NCI single dose (10 µM) SRB screen; type: cell-based, human; settings: leukaemia, 48 h
A549/ATCC = test: NCI single dose (10 µM) SRB screen; type: cell-based, human; settings: non-small cell lung cancer, 48 h
EKVX = test: NCI single dose (10 µM) SRB screen; type: cell-based, human; settings: non-small cell lung cancer, 48 h
HOP-62 = test: NCI single dose (10 µM) SRB screen; type: cell-based, human; settings: non-small cell lung cancer, 48 h
HOP-92 = test: NCI single dose (10 µM) SRB screen; type: cell-based, human; settings: non-small cell lung cancer, 48 h
NCI-H226 = test: NCI single dose (10 µM) SRB screen; type: cell-based, human; settings: non-small cell lung cancer, 48 h
NCI-H23 = test: NCI single dose (10 µM) SRB screen; type: cell-based, human; settings: non-small cell lung cancer, 48 h
NCI-H322M = test: NCI single dose (10 µM) SRB screen; type: cell-based; settings: non-small cell lung cancer, 48 h
NCI-H460 = test: NCI single dose (10 µM) SRB screen; type: cell-based, human; settings: non-small cell lung cancer, 48 h
NCI-H522 = test: NCI single dose (10 µM) SRB screen; type: cell-based, human; settings: non-small cell lung cancer, 48 h
COLO 205 = test: NCI single dose (10 µM) SRB screen; type: cell-based, human; settings: colon cancer, 48 h
HCC-2998 = test: NCI single dose (10 µM) SRB screen; type: cell-based, human; settings: colon cancer, 48 h
HCT-116 = test: NCI single dose (10 µM) SRB screen; type: cell-based, human; settings: colon cancer, 48 h
HCT-15 = test: NCI single dose (10 µM) SRB screen; type: cell-based, human; settings: colon cancer, 48 h
HT29 = test: NCI single dose (10 µM) SRB screen; type: cell-based, human; settings: colon cancer, 48 h
KM12 = test: NCI single dose (10 µM) SRB screen; type: cell-based, human; settings: colon cancer, 48 h
SW-620 = test: NCI single dose (10 µM) SRB screen; type: cell-based, human; settings: colon cancer, 48 h
SF-268 = test: NCI single dose (10 µM) SRB screen; type: cell-based, human; settings: CNS cancer, 48 h
SF-295 = test: NCI single dose (10 µM) SRB screen; type: cell-based, human; settings: CNS cancer, 48 h
SF-539 = test: NCI single dose (10 µM) SRB screen; type: cell-based, human; settings: CNS cancer, 48 h
SNB-19 = test: NCI single dose (10 µM) SRB screen; type: cell-based, human; settings: CNS cancer, 48 h
SNB-75 = test: NCI single dose (10 µM) SRB screen; type: cell-based, human; settings: CNS cancer, 48 h
U251 = test: NCI single dose (10 µM) SRB screen; type: cell-based, human; settings: CNS cancer, 48 h
LOX IMVI = test: NCI single dose (10 µM) SRB screen; type: cell-based, human; settings: melanoma, 48 h
MALME-3M = test: NCI single dose (10 µM) SRB screen; type: cell-based, human; settings: melanoma, 48 h
M14 = test: NCI single dose (10 µM) SRB screen; type: cell-based, human; settings: melanoma, 48 h
MDA-MB-435 = test: NCI single dose (10 µM) SRB screen; type: cell-based, human; settings: melanoma, 48 h
SK-MEL-2 = test: NCI single dose (10 µM) SRB screen; type: cell-based, human; settings: melanoma, 48 h
SK-MEL-28 = test: NCI single dose (10 µM) SRB screen; type: cell-based, human; settings: melanoma, 48 h
SK-MEL-5 = test: NCI single dose (10 µM) SRB screen; type: cell-based, human; settings: melanoma, 48 h
UACC-257 = test: NCI single dose (10 µM) SRB screen; type: cell-based, human; settings: melanoma, 48 h
UACC-62 = test: NCI single dose (10 µM) SRB screen; type: cell-based, human; settings: melanoma, 48 h
IGROV1 = test: NCI single dose (10 µM) SRB screen; type: cell-based, human; settings: ovarian cancer, 48 h
OVCAR-3 = test: NCI single dose (10 µM) SRB screen; type: cell-based, human; settings: ovarian cancer, 48 h
OVCAR-4 = test: NCI single dose (10 µM) SRB screen; type: cell-based, human; settings: ovarian cancer, 48 h
OVCAR-5 = test: NCI single dose (10 µM) SRB screen; type: cell-based, human; settings: ovarian cancer, 48 h
OVCAR-8 = test: NCI single dose (10 µM) SRB screen; type: cell-based, human; settings: ovarian cancer, 48 h
NCI/ADR-RES = test: NCI single dose (10 µM) SRB screen; type: cell-based, human; settings: ovarian cancer, 48 h
SK-OV-3 = test: NCI single dose (10 µM) SRB screen; type: cell-based, human; settings: ovarian cancer, 48 h
786-0 = test: NCI single dose (10 µM) SRB screen; type: cell-based, human; settings: renal cancer, 48 h
A498 = test: NCI single dose (10 µM) SRB screen; type: cell-based, human; settings: renal cancer, 48 h
ACHN = test: NCI single dose (10 µM) SRB screen; type: cell-based, human; settings: renal cancer, 48 h
CAKI-1 = test: NCI single dose (10 µM) SRB screen; type: cell-based, human; settings: renal cancer, 48 h
RXF 393 = test: NCI single dose (10 µM) SRB screen; type: cell-based, human; settings: renal cancer, 48 h
SN12C = test: NCI single dose (10 µM) SRB screen; type: cell-based, human; settings: renal cancer, 48 h
TK-10 = test: NCI single dose (10 µM) SRB screen; type: cell-based, human; settings: renal cancer, 48 h
UO-31 = test: NCI single dose (10 µM) SRB screen; type: cell-based, human; settings: renal cancer, 48 h
PC-3 = test: NCI single dose (10 µM) SRB screen; type: cell-based, human; settings: prostate cancer, 48 h
DU-145 = test: NCI single dose (10 µM) SRB screen; type: cell-based, human; settings: prostate cancer, 48 h
MCF7 = test: NCI single dose (10 µM) SRB screen; type: cell-based, human; settings: breast cancer, 48 h
MDA-MB-231 = test: NCI single dose (10 µM) SRB screen; type: cell-based, human; settings: breast cancer, 48 h
HS578T = test: NCI single dose (10 µM) SRB screen; type: cell-based, human; settings: breast cancer, 48 h
BT-549 = test: NCI single dose (10 µM) SRB screen; type: cell-based, human; settings: breast cancer, 48 h
T-47D = test: NCI single dose (10 µM) SRB screen; type: cell-based, human; settings: breast cancer, 48 h
MDA-MB-468 = test: NCI single dose (10 µM) SRB screen; type: cell-based, human; settings: breast cancer, 48 h
NCI 60 cancer cell lines = test: NCI single dose (10 µM) SRB screen, mean over panel; type: cell-based, human; settings: mean over 60 cell lines, 48 h
Staphylococcus aureus = test: Agar well diffusion method; settings: relative to ciprofloxacin
Bacillus subtilis = test: Agar well diffusion method; settings: relative to ciprofloxacin
Escherichia coli = test: Agar well diffusion method; settings: relative to ciprofloxacin
Pseudomonas aeruginosa = test: Agar well diffusion method; settings: relative to ciprofloxacin
Candida albicans = test: Agar well diffusion method; settings: relative to clotrimazole
Aspergillus flavus = test: Agar well diffusion method; settings: relative to clotrimazole

CC1=C(C(=O)OCC(C)C)C(c2cccc(C#N)c2)C(C(=O)OCC(C)C)=C(C)N1 [Compound 1d, Diisobutyl 4-(3-cyanophenyl)-2,6-dimethyl-1,4-dihydropyridine-3,5-dicarboxylate]
GI% CCRF-CEM (CCRF-CEM): 32%
GI% HL-60(TB) (HL-60(TB)): 30%
GI% K-562 (K-562): 44%
GI% MOLT-4 (MOLT-4): 57%
GI% RPMI-8226 (RPMI-8226): 35%
GI% SR (SR): 52%
GI% A549/ATCC (A549/ATCC): 25%
GI% EKVX (EKVX): 27%
GI% HOP-62 (HOP-62): 12%
GI% HOP-92 (HOP-92): 37%
GI% NCI-H226 (NCI-H226): 25%
GI% NCI-H23 (NCI-H23): 14%
GI% NCI-H322M (NCI-H322M): – (Only GI% ≥ 10 are shown)
GI% NCI-H460 (NCI-H460): 13%
GI% NCI-H522 (NCI-H522): 21%
GI% COLO 205 (COLO 205): – (Only GI% ≥ 10 are shown)
GI% HCC-2998 (HCC-2998): – (Only GI% ≥ 10 are shown)
GI% HCT-116 (HCT-116): 32%
GI% HCT-15 (HCT-15): 31%
GI% HT29 (HT29): 12%
GI% KM12 (KM12): 24%
GI% SW-620 (SW-620): – (Only GI% ≥ 10 are shown)
GI% SF-268 (SF-268): 25%
GI% SF-295 (SF-295): 32%
GI% SF-539 (SF-539): 12%
GI% SNB-19 (SNB-19): – (Only GI% ≥ 10 are shown)
GI% SNB-75 (SNB-75): 32%
GI% U251 (U251): 21%
GI% LOX IMVI (LOX IMVI): 10%
GI% MALME-3M (MALME-3M): – (Only GI% ≥ 10 are shown)
GI% M14 (M14): – (Only GI% ≥ 10 are shown)
GI% MDA-MB-435 (MDA-MB-435): – (Only GI% ≥ 10 are shown)
GI% SK-MEL-2 (SK-MEL-2): 14%
GI% SK-MEL-28 (SK-MEL-28): – (Only GI% ≥ 10 are shown)
GI% SK-MEL-5 (SK-MEL-5): 17%
GI% UACC-257 (UACC-257): 17%
GI% UACC-62 (UACC-62): 23%
GI% IGROV1 (IGROV1): – (Only GI% ≥ 10 are shown)
GI% OVCAR-3 (OVCAR-3): 10%
GI% OVCAR-4 (OVCAR-4): 16%
GI% OVCAR-5 (OVCAR-5): – (Only GI% ≥ 10 are shown)
GI% OVCAR-8 (OVCAR-8): 11%
GI% NCI/ADR-RES (NCI/ADR-RES): 20%
GI% SK-OV-3 (SK-OV-3): – (Only GI% ≥ 10 are shown)
GI% 786-0 (786-0): 18%
GI% A498 (A498): 17%
GI% ACHN (ACHN): 16%
GI% CAKI-1 (CAKI-1): 38%
GI% RXF 393 (RXF 393): 42%
GI% SN12C (SN12C): 10%
GI% TK-10 (TK-10): – (Only GI% ≥ 10 are shown)
GI% UO-31 (UO-31): 20%
GI% PC-3 (PC-3): 57%
GI% DU-145 (DU-145): – (Only GI% ≥ 10 are shown)
GI% MCF7 (MCF7): 39%
GI% MDA-MB-231 (MDA-MB-231): 17%
GI% HS578T (HS578T): 25%
GI% BT-549 (BT-549): – (Only GI% ≥ 10 are shown)
GI% T-47D (T-47D): 54%
GI% MDA-MB-468 (MDA-MB-468): 30%
Mean GI% (NCI 60 cancer cell lines): 19%
melting point: 146 to 148 °C
% activity index, S. aureus (Staphylococcus aureus): – (Values below 25 are of limited value and not shown as they refer either to inactive or non-diffusing compounds)
% activity index, B. subtilis (Bacillus subtilis): – (Values below 25 are of limited value and not shown as they refer either to inactive or non-diffusing compounds)
% activity index, E. coli (Escherichia coli): – (Values below 25 are of limited value and not shown as they refer either to inactive or non-diffusing compounds)
% activity index, P. aeruginosa (Pseudomonas aeruginosa): – (Values below 25 are of limited value and not shown as they refer either to inactive or non-diffusing compounds)
% activity index, C. albicans (Candida albicans): – (Values below 25 are of limited value and not shown as they refer either to inactive or non-diffusing compounds)
% activity index, A. flavus (Aspergillus flavus): – (Values below 25 are of limited value and not shown as they refer either to inactive or non-diffusing compounds)
